# Assay results reported in PubChem BioAssay (NCI).
# “And” between values parts separate entries of the source, which are not always exact repeats. Equal entries are not always repeated.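 48-hour exposure; five concentrations; linearly interpolated endpoints. GI50: concentration for 50% inhibition of growth. TGI is the concentration that stops growth completely.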
# Tests used:
# Test in all cases: NCI tumour cell line growth inhibition, 48 h
# OVCAR-5 ovarian = tested on: OVCAR-5 ovarian
# NCI/ADR-RES ovarian = tested on: NCI/ADR-RES ovarian
# COLO 205 colon = tested on: COLO 205 colon
# KM12 colon = tested on: KM12 colon
# NCI-H522 lung = tested on: NCI-H522 lung
# HT29 colon = tested on: HT29 colon
# SK-MEL-2 melanoma = tested on: SK-MEL-2 melanoma
# LOX IMVI melanoma = tested on: LOX IMVI melanoma
# HL-60(TB) leukemia = tested on: HL-60(TB) leukemia
# DU-145 prostate = tested on: DU-145 prostate
# T-47D breast = tested on: T-47D breast
Structure (SMILES),TGI (OVCAR-5 ovarian),TGI (NCI/ADR-RES ovarian) [µM],TGI (COLO 205 colon) [µM],TGI (KM12 colon) [µM],TGI (NCI-H522 lung) [µM],TGI (HT29 colon) [µM],TGI (SK-MEL-2 melanoma) [µM],TGI (LOX IMVI melanoma) [µM],TGI (HL-60(TB) leukemia) [µM],TGI (DU-145 prostate),TGI (T-47D breast),GI50 (COLO 205 colon) [nM],GI50 (T-47D breast) [nM],GI50 (OVCAR-5 ovarian) [nM],GI50 (DU-145 prostate) [nM],GI50 (KM12 colon) [nM],GI50 (SK-MEL-2 melanoma) [nM]
COC(=O)[C@@H]1c2cc3c(c(O)c2[C@@H](OC)C[C@@]1(C)O)C(=O)c1c(O)cc2c(c1C3=O)OC1O[C@@]2(C)[C@H](O)[C@@H](N(C)C)[C@@H]1O,2.16 µM,4.22,1.98,2.34,1.9,2,0.727,–,–,–,–,–,–,–,–,–,–
Nc1nc2c(ncn2CCOC(c2ccccc2)P(=O)(O)O)c(=O)[nH]1 (configuration not stated),> 100 µM,–,> 100,> 100,> 100,> 100,> 100,> 100,> 100,–,–,–,–,–,–,–,–
OCCSCCCSCCO,> 100 µM,> 100,> 100,> 100,> 100,> 100,–,> 100,80.7,> 100 µM,> 100 µM,–,–,–,–,–,–
CN(C)CCNCc1c2ccccc2c(CNCCN(C)C)c2ccccc12,43.5 µM,> 100,22.3,> 100,> 100,40.6,57.5,38.7,46.8,–,–,–,–,–,–,–,–
CC(SC(=S)N1CCCCC1)C(=O)Nc1nnc(-c2ccc(Cl)cc2)o1 (configuration not stated),> 100 µM,> 100,> 100,–,–,54.6,77.1,> 100,23.1,> 100 µM,> 100 µM,–,–,–,–,–,–
Oc1cc(Cl)cc2cc(Br)cnc12,> 100 µM,> 54.5,> 100,> 100,> 69.9,> 100,–,–,1.37,> 100 µM,> 59.6 µM,–,–,–,–,–,–
CCCCCCOc1ccc(NC2=C(Cl)C(=O)c3cccnc3C2=O)cc1,5.01 µM,–,–,2.97,–,6.66,4.43,2.81,3.78,2.9 µM,3.78 µM,–,–,–,–,–,–
Cc1cc2c(c3oc(C(O)(CO)C4CO4)cc(=O)c13)C(=O)c1c(O)cccc1C2=O (configuration not stated),0.00791 µM and 0.00328 µM and 0.0041 µM,–,0.00115,–,0.00323,–,0.00415,–,0.00397,0.00249 µM and 0.00108 µM,0.00683 µM and 0.00232 µM and 0.0146 µM,0.1,3.75,–,–,–,–
NC(=O)c1n[nH]n(-c2ccccc2)c1=O,> 100 µM,> 100,> 100,> 100,> 100,> 100,> 100,> 100,–,> 100 µM,> 100 µM,–,–,–,–,–,–
O=C1CN(c2ccc(Cl)cc2)C(=O)CN1CCN1CC(=O)N(c2ccc(Cl)cc2)CC1=O,> 100 µM,–,> 100,> 100,> 100,> 100,–,–,> 100,> 100 µM,–,–,–,–,–,–,–
CC1=C(C2=C(C)C(=O)C(=O)c3cc(C)ccc32)c2ccc(C)cc2C(=O)C1=O,0.45 µM,–,0.525,0.447,0.631,0.705,0.877,> 100,> 100,2.84 µM,–,–,–,–,–,–,–
Cn1c(-c2csc(-c3ccc(Cl)cc3)n2)n[nH]c1=S,> 100 µM,> 100,> 100,> 100,41,> 100,–,73,–,–,> 100 µM,–,–,–,–,–,–
C[n+]1c2ccccc2c(CNC(CCC(N)=O)C(=O)O)c2ccccc21 (configuration not stated),18 µM,14,2.14,9,3.18,7.01,12,6.64,7.65,11.4 µM,–,–,–,–,–,–,–
c1ccc2nc3[nH]c4ccccc4c3cc2c1,20.4 µM,8.28,1.53,1.81,1.52,1.75,16,1.16,0.726,13.1 µM,–,–,–,–,–,–,–
CC(C)(C)NC(NC(C)(C)C)=C(C(Cl)=C(Cl)Cl)[N+](=O)[O-],> 100 µM,> 100,> 100,> 100,–,> 100,–,> 100,> 100,> 100 µM,> 100 µM,–,–,–,–,–,–
C=C(C)C1Cc2c(cc(O)c3c(=O)c4ccccc4n(C)c23)O1 (configuration not stated),> 100 µM,–,> 100,> 100,66.1,> 100,> 100,37.2,> 100,–,–,–,–,–,–,–,–
N#CC1C(=O)Nc2sc(C(=O)c3ccc(Br)cc3)c(N)c2C12CCCCC2 (configuration not stated),> 100 µM,> 100,40.1,44.1,78.8,> 100,37.7,> 100,–,> 100 µM,> 100 µM,–,–,–,–,–,–
O=[N+]([O-])c1ccc(NC2OCC(O)C(O)C2O)cc1 (configuration not stated),–,–,> 100,> 100,> 100,> 100,> 100,> 100,–,–,–,–,–,–,–,–,–
O=c1nc2n(cc1/C=C\Br)C1CC(O)C(CO2)O1 (configuration not stated),> 100 µM,> 100,> 100,> 100,–,> 100,–,> 100,54.8,> 100 µM,> 100 µM,–,–,–,–,–,–
N#CCCC(CC#N)N1CCN(CCO)CC1 (configuration not stated),> 100 µM,> 100,> 100,> 100,–,> 100,–,–,> 100,> 100 µM,> 100 µM,–,–,–,–,–,–
COC1=CC(=O)C(O)=C(C[C@@]2(C)[C@@H]3CCC[C@H](COC(=O)CCCCCNC(=O)OC(C)(C)C)[C@@]3(C)CC[C@@H]2C)C1=O,> 10 µM,–,> 10,> 10,> 10,> 10,> 10,> 10,> 10,> 10 µM,> 10 µM,–,–,–,–,–,–
CC1=C/C(=N/N2C(=O)/C(=C/c3ccc(Cl)cc3)N=C2c2ccccc2)CC(C)(C)C1,> 100 µM,> 100,> 100,> 100,> 100,> 100,96,> 100,–,–,> 100 µM,–,–,–,–,–,–
CN1CCN(CC(=O)Nc2ccc3ncnc(Nc4ccc(Oc5cccc(C(F)(F)F)c5)c(Cl)c4)c3c2)CC1,2.98 µM,–,–,3.3,–,–,4.04,–,–,2.71 µM,4.1 µM,–,1660,1580,1400,1790,2020
